Five compounds from ChEMBL document CHEMBL4387728, “Synthetic glycopeptides reveal specific binding pattern and conformational change at O-mannosylated position of α-dystroglycan by POMGnT1 catalyzed GlcNAc modification” (Bioorg Med Chem, 2019) can be followed below.

Test [1] in a line: Binding affinity to biotin-labeled Agaricus bisporus agglutinin in pH 7.4 Tris buffer by fluorescence microarray method.
In a further test the test system is Datura stramonium. Put plainly: Binding affinity to biotin-labeled Datura stramonium agglutinin in pH 7.4 Tris buffer by fluorescence microarray method.
Test [2] concerns the target Laminin subunit alpha-1 (Homo sapiens) (UniProt P25391). Briefly: Binding affinity to biotin-labeled human recombinant laminin-1 at 10 ug/ml in pH 7.4 Tris buffer by fluorescence microarray method.
Another test concerns Maackia amurensis. Briefly: Binding affinity to biotin-labeled Maackia amurensis agglutinin in pH 7.4 Tris buffer by fluorescence microarray method.
The species entered for test [3] is Homo sapiens. Put plainly: Binding affinity to biotin-labeled human recombinant laminin-2 at 10 ug/ml in pH 7.4 Tris buffer by fluorescence microarray method.
The species entered for test [4] is Homo sapiens. Put plainly: Binding affinity to biotin-labeled human recombinant laminin-2 at 10 ug/ml in 5.6 MES buffer by fluorescence microarray method.
The test system of another test is Canavalia ensiformis. Briefly: Binding affinity to biotin-labeled Canavalia ensiformis agglutinin in pH 7.4 Tris buffer by fluorescence microarray method.
Test [5] addresses Lactotransferrin (Homo sapiens) (UniProt P02788). Put plainly: Binding affinity to biotin-labeled lactoferrin (unknown origin) at 10 ug/ml in pH 5.6 MES buffer by fluorescence microarray method.
A further test deals with Arachis hypogaea. Put plainly: Binding affinity to biotin-labeled Arachis hypogaea agglutinin in pH 7.4 Tris buffer by fluorescence microarray method.
In test [6] the target is Lactotransferrin (Homo sapiens) (UniProt P02788). Briefly: Binding affinity to biotin-labeled lactoferrin (unknown origin) at 10 ug/ml in pH 7.4 Tris buffer by fluorescence microarray method.
Lactotransferrin (Homo sapiens), sequence (P02788 whole entry): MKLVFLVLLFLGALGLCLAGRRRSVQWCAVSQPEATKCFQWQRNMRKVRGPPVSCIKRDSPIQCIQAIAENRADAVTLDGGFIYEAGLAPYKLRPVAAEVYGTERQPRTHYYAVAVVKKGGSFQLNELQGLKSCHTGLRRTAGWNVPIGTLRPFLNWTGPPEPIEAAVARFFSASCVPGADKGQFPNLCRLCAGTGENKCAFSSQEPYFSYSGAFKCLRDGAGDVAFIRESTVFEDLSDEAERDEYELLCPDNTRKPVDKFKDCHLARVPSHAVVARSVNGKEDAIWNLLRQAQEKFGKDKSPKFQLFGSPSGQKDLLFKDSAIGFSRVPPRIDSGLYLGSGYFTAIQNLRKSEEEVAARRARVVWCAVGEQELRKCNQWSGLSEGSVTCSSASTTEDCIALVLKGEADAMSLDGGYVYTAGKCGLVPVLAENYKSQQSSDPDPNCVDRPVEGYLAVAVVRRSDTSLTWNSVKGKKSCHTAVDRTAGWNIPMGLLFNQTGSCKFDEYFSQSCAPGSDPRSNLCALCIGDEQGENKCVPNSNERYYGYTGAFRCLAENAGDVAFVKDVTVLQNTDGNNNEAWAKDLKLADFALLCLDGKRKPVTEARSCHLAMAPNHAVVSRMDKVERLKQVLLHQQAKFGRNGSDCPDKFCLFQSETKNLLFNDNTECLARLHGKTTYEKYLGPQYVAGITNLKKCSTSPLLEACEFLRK
Test [7] relates to Sambucus racemosa subsp. sieboldiana. Put plainly: Binding affinity to biotin-labeled Sambucus sieboldiana agglutinin in pH 7.4 Tris buffer by fluorescence microarray method.
The next test relates to Triticum aestivum. Put plainly: Binding affinity to biotin-labeled Wheat germ agglutinin in pH 7.4 Tris buffer by fluorescence microarray method.
The target of test [8] is Laminin subunit alpha-1 (Homo sapiens) (UniProt P25391). Put plainly: Binding affinity to biotin-labeled human recombinant laminin-1 at 10 ug/ml in pH 5.6 MES buffer by fluorescence microarray method.
Laminin subunit alpha-1 (Homo sapiens), sequence (P25391 whole entry): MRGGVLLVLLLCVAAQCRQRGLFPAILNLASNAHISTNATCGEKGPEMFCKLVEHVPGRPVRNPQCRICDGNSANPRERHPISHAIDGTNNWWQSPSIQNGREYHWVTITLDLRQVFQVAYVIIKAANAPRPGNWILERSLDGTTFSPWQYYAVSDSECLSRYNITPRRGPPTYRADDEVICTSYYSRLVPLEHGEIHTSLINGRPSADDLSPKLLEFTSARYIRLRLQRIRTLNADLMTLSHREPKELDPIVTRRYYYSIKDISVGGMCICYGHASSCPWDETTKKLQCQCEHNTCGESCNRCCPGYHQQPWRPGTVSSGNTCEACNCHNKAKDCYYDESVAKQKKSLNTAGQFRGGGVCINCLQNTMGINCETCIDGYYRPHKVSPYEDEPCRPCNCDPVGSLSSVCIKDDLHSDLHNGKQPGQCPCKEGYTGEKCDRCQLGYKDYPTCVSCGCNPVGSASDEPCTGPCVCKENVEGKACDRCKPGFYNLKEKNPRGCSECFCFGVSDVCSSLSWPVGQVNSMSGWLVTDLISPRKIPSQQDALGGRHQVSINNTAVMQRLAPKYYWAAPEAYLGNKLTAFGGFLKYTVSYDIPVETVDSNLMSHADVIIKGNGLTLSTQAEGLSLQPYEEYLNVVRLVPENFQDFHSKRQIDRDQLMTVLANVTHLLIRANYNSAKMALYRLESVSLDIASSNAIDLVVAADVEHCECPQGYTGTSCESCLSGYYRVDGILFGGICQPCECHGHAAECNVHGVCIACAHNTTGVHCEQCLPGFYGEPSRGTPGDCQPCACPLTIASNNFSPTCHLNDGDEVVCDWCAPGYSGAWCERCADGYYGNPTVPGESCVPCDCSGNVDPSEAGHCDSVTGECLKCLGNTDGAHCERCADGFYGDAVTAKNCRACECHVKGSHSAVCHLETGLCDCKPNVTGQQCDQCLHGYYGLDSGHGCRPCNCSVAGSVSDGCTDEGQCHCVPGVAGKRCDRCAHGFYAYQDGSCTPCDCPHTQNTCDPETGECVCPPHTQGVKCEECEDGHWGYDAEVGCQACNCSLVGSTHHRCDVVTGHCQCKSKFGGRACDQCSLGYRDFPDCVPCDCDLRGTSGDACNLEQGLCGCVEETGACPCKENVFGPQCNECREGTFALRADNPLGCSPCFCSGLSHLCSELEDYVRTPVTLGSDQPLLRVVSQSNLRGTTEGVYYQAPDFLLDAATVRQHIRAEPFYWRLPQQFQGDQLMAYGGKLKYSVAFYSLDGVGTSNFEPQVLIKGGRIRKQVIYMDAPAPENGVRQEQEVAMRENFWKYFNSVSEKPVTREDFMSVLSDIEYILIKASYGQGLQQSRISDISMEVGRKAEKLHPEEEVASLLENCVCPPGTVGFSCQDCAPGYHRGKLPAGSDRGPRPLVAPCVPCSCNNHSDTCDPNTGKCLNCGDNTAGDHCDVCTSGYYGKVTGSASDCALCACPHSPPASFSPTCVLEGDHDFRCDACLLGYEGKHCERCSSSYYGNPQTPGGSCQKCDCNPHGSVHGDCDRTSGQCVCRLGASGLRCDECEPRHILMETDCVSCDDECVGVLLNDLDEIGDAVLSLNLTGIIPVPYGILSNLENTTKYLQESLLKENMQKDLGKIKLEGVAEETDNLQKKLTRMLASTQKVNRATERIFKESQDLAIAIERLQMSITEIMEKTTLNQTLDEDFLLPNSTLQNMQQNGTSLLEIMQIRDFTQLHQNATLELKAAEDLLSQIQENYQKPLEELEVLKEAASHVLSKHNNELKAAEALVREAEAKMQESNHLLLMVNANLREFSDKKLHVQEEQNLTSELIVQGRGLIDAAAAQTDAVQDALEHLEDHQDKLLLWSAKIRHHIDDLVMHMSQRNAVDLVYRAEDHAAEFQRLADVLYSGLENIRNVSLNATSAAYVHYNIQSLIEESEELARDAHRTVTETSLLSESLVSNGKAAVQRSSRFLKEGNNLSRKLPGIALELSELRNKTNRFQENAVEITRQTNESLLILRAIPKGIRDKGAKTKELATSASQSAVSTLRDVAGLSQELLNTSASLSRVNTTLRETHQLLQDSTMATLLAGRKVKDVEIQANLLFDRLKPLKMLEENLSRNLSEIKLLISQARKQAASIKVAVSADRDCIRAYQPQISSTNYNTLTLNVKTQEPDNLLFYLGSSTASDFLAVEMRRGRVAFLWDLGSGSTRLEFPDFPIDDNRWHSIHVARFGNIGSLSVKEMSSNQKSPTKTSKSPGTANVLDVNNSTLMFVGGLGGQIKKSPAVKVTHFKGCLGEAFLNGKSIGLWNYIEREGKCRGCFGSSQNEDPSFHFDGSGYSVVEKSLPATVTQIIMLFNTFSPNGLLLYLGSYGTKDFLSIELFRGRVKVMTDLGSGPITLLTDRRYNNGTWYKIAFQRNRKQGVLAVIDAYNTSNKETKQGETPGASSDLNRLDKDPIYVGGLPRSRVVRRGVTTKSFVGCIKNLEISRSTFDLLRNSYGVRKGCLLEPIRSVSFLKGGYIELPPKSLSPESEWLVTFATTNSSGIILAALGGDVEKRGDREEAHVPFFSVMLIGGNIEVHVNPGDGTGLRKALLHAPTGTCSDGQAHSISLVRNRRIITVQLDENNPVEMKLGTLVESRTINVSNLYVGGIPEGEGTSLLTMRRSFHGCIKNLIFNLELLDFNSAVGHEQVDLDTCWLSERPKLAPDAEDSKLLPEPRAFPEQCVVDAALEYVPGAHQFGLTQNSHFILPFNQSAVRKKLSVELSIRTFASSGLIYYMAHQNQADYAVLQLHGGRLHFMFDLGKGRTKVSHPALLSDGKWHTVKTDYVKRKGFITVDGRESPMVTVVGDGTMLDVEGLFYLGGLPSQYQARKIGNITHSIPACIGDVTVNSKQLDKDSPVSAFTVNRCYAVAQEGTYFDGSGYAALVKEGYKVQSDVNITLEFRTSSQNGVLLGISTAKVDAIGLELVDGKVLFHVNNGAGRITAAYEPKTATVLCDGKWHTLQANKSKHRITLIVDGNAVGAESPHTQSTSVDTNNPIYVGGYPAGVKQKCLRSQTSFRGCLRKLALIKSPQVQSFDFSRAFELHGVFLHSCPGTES
Another test deals with Erythrina crista-galli. Briefly: Binding affinity to biotin-labeled Erythrina crista-galli agglutinin in pH 7.4 Tris buffer by fluorescence microarray method.

Each structure is given as a SMILES string. Active and inactive are the calls of the source. No cut-off for these calls is given here. Peptide text beside a SMILES is read from it. * marks the point of attachment. X1 = CC(=O)N[C@H]1[C@H](O[C@H]2[C@@H](O)[C@H](O)[C@@H](CO)O[C@@H]2*)O[C@H](CO)[C@@H](O[C@@H]2O[C@H](CO)[C@H](O)[C@H](O[C@]3(C(=O)O)C[C@H](O)[C@@H](NC(C)=O)[C@H]([C@H](O)[C@H](O)CO)O3)[C@H]2O)[C@@H]1O; X2 = CC(=O)N[C@H]1[C@H](O[C@H]2[C@@H](O)[C@H](O)[C@@H](CO)O[C@@H]2*)O[C@H](CO)[C@@H](O[C@@H]2O[C@H](CO)[C@H](O)[C@H](O)[C@H]2O)[C@@H]1O; GlcNAc(β1-2)αMan = CC(=O)N[C@H]1[C@H](O[C@H]2[C@@H](O)[C@H](O)[C@@H](CO)O[C@@H]2*)O[C@H](CO)[C@@H](O)[C@@H]1O; Hexanoyl(5-oxo) = CC(=O)CCCC(=O)*

Turning to `CC[C@H](C)[C@H](NC(=O)[C@H](C)NC(=O)CNC(=O)[C@H](CCCNC(=N)N)NC(=O)[C@@H](NC(=O)CCCC(C)=O)[C@@H](C)O)C(=O)N[C@H](C(=O)N[C@@H](CCC(N)=O)C(=O)N[C@H](C(=O)N1CCC[C@H]1C(=O)N[C@H](C(=O)N[C@@H](CC(C)C)C(=O)NCC(=O)N1CCC[C@H]1C(=O)N[C@H](C(=O)N[C@@H](CCC(N)=O)C(=O)N1CCC[C@H]1C(=O)N[C@H](C(=O)N[C@@H](CCCNC(=N)N)C(=O)N[C@H](C(N)=O)C(C)C)[C@@H](C)O[C@H]1O[C@H](CO)[C@@H](O)[C@H](O)[C@@H]1O[C@@H]1O[C@H](CO)[C@@H](O[C@@H]2O[C@H](CO)[C@H](O)[C@H](O[C@]3(C(=O)O)C[C@H](O)[C@@H](NC(C)=O)[C@H]([C@H](O)[C@H](O)CO)O3)[C@H]2O)[C@H](O)[C@H]1NC(C)=O)[C@@H](C)CC)[C@@H](C)O[C@H]1O[C@H](CO)[C@@H](O)[C@H](O)[C@@H]1O[C@@H]1O[C@H](CO)[C@@H](O[C@@H]2O[C@H](CO)[C@H](O)[C@H](O[C@]3(C(=O)O)C[C@H](O)[C@@H](NC(C)=O)[C@H]([C@H](O)[C@H](O)CO)O3)[C@H]2O)[C@H](O)[C@H]1NC(C)=O)[C@@H](C)O)[C@@H](C)CC` ({Hexanoyl(5-oxo)}-TRGAIIQTPT(X1)LGPIQPT(X1)RV-NH2), the outcome (in [1]; in test [2]; in the test listed under Homo sapiens [4]; in the test with Canavalia ensiformis; in test [5]; with Arachis hypogaea) was Active. Further, the outcome (in test [7]; in the test on Triticum aestivum; in [8]; with Erythrina crista-galli) was Active. The outcome (with Datura stramonium; in the test on Maackia amurensis; in the test filed under Homo sapiens [3]; in [6]) was inactive.
As for `CC[C@H](C)[C@H](NC(=O)[C@H](C)NC(=O)CNC(=O)[C@H](CCCNC(=N)N)NC(=O)[C@@H](NC(=O)CCCC(C)=O)[C@@H](C)O)C(=O)N[C@H](C(=O)N[C@@H](CCC(N)=O)C(=O)N[C@H](C(=O)N1CCC[C@H]1C(=O)N[C@H](C(=O)N[C@@H](CC(C)C)C(=O)NCC(=O)N1CCC[C@H]1C(=O)N[C@H](C(=O)N[C@@H](CCC(N)=O)C(=O)N1CCC[C@H]1C(=O)N[C@H](C(=O)N[C@@H](CCCNC(=N)N)C(=O)N[C@H](C(N)=O)C(C)C)[C@@H](C)O)[C@@H](C)CC)[C@@H](C)O)[C@@H](C)O[C@H]1O[C@H](CO)[C@@H](O)[C@H](O)[C@@H]1O[C@@H]1O[C@H](CO)[C@@H](O[C@@H]2O[C@H](CO)[C@H](O)[C@H](O[C@]3(C(=O)O)C[C@H](O)[C@@H](NC(C)=O)[C@H]([C@H](O)[C@H](O)CO)O3)[C@H]2O)[C@H](O)[C@H]1NC(C)=O)[C@@H](C)CC` ({Hexanoyl(5-oxo)}-TRGAIIQT(X1)PTLGPIQPTRV-NH2), the outcome (in test [1]; in [2]; in the test listed under Homo sapiens [4]; in the test on Canavalia ensiformis; in [5]; with Arachis hypogaea) was Active. The result (in [7]; with Triticum aestivum; in test [8]; in the test on Erythrina crista-galli) was Active. For the same compound, the outcome (in the test on Datura stramonium; in the test with Maackia amurensis; in the test filed under Homo sapiens [3]; in test [6]) was inactive.
With `CC[C@H](C)[C@H](NC(=O)[C@H](C)NC(=O)CNC(=O)[C@H](CCCNC(=N)N)NC(=O)[C@@H](NC(=O)CCCC(C)=O)[C@@H](C)O)C(=O)N[C@H](C(=O)N[C@@H](CCC(N)=O)C(=O)N[C@H](C(=O)N1CCC[C@H]1C(=O)N[C@H](C(=O)N[C@@H](CC(C)C)C(=O)NCC(=O)N1CCC[C@H]1C(=O)N[C@H](C(=O)N[C@@H](CCC(N)=O)C(=O)N1CCC[C@H]1C(=O)N[C@H](C(=O)N[C@@H](CCCNC(=N)N)C(=O)N[C@H](C(N)=O)C(C)C)[C@@H](C)O)[C@@H](C)CC)[C@@H](C)O[C@H]1O[C@H](CO)[C@@H](O)[C@H](O)[C@@H]1O[C@@H]1O[C@H](CO)[C@@H](O)[C@H](O)[C@H]1NC(C)=O)[C@@H](C)O[C@H]1O[C@H](CO)[C@@H](O)[C@H](O)[C@@H]1O[C@@H]1O[C@H](CO)[C@@H](O)[C@H](O)[C@H]1NC(C)=O)[C@@H](C)CC` ({Hexanoyl(5-oxo)}-TRGAIIQT(GlcNAc(β1-2)αMan)PT(GlcNAc(β1-2)αMan)LGPIQPTRV-NH2), the outcome (in test [1]; in test [2]; in the test filed under Homo sapiens [4]; in the test with Canavalia ensiformis; in [5]; in the test with Arachis hypogaea) was Active. Further, the outcome (in test [7]; in the test with Triticum aestivum; in test [8]; in the test on Erythrina crista-galli) was Active. For the same compound, the result (in the test on Datura stramonium; with Maackia amurensis; in the test listed under Homo sapiens [3]; in test [6]) was inactive.
As for `CC[C@H](C)[C@H](NC(=O)[C@H](C)NC(=O)CNC(=O)[C@H](CCCNC(=N)N)NC(=O)[C@@H](NC(=O)CCCC(C)=O)[C@@H](C)O)C(=O)N[C@H](C(=O)N[C@@H](CCC(N)=O)C(=O)N[C@H](C(=O)N1CCC[C@H]1C(=O)N[C@H](C(=O)N[C@@H](CC(C)C)C(=O)NCC(=O)N1CCC[C@H]1C(=O)N[C@H](C(=O)N[C@@H](CCC(N)=O)C(=O)N1CCC[C@H]1C(=O)N[C@H](C(=O)N[C@@H](CCCNC(=N)N)C(=O)N[C@H](C(N)=O)C(C)C)[C@@H](C)O[C@H]1O[C@H](CO)[C@@H](O)[C@H](O)[C@@H]1O[C@@H]1O[C@H](CO)[C@@H](O[C@@H]2O[C@H](CO)[C@H](O)[C@H](O[C@]3(C(=O)O)C[C@H](O)[C@@H](NC(C)=O)[C@H]([C@H](O)[C@H](O)CO)O3)[C@H]2O)[C@H](O)[C@H]1NC(C)=O)[C@@H](C)CC)[C@@H](C)O)[C@@H](C)O)[C@@H](C)CC` ({Hexanoyl(5-oxo)}-TRGAIIQTPTLGPIQPT(X1)RV-NH2), the result (in test [1]; in [2]; in the test filed under Homo sapiens [4]; in the test with Canavalia ensiformis; in test [5]; with Arachis hypogaea) was Active. In addition, the result (in test [7]; in the test on Triticum aestivum; in test [8]; in the test on Erythrina crista-galli) was Active. Besides, the result (in the test with Datura stramonium; in the test with Maackia amurensis; in the test listed under Homo sapiens [3]; in test [6]) was inactive.
With `CC[C@H](C)[C@H](NC(=O)[C@H](C)NC(=O)CNC(=O)[C@H](CCCNC(=N)N)NC(=O)[C@@H](NC(=O)CCCC(C)=O)[C@@H](C)O)C(=O)N[C@H](C(=O)N[C@@H](CCC(N)=O)C(=O)N[C@H](C(=O)N1CCC[C@H]1C(=O)N[C@H](C(=O)N[C@@H](CC(C)C)C(=O)NCC(=O)N1CCC[C@H]1C(=O)N[C@H](C(=O)N[C@@H](CCC(N)=O)C(=O)N1CCC[C@H]1C(=O)N[C@H](C(=O)N[C@@H](CCCNC(=N)N)C(=O)N[C@H](C(N)=O)C(C)C)[C@@H](C)O)[C@@H](C)CC)[C@@H](C)O[C@H]1O[C@H](CO)[C@@H](O)[C@H](O)[C@@H]1O[C@@H]1O[C@H](CO)[C@@H](O[C@@H]2O[C@H](CO)[C@H](O)[C@H](O)[C@H]2O)[C@H](O)[C@H]1NC(C)=O)[C@@H](C)O[C@H]1O[C@H](CO)[C@@H](O)[C@H](O)[C@@H]1O[C@@H]1O[C@H](CO)[C@@H](O[C@@H]2O[C@H](CO)[C@H](O)[C@H](O)[C@H]2O)[C@H](O)[C@H]1NC(C)=O)[C@@H](C)CC` ({Hexanoyl(5-oxo)}-TRGAIIQT(X2)PT(X2)LGPIQPTRV-NH2), the result (in test [1]; in [2]; in the test filed under Homo sapiens [4]; with Canavalia ensiformis; in test [5]; with Arachis hypogaea) was Active. In addition, the outcome (in test [7]; with Triticum aestivum; in test [8]; with Erythrina crista-galli) was Active. Further, the result (in the test with Datura stramonium; in the test on Maackia amurensis; in the test filed under Homo sapiens [3]; in test [6]) was inactive.
